Source: PMC6547740, “Potent and specific MTH1 inhibitors targeting gastric cancer” (Cell Death & Disease, 2019)

Columns and labels:
[1] = biological target: T1, MUTYH (Homo sapiens, UniProt Q9UIF7); assay: Cellular thermal shift assay (CETSA), MUTYH; assay type: binding; conditions: MGC-803 cells, 50 µM compound, heated 10 min from 43 to 61 °C
T1 construct: endogenous in cells; host or cells: MGC-803 (human gastric cancer cell line)
Procedure: Cellular thermal shift assay (CETSA), also known as the target engagement assay was one-way to detect the intracellular interaction ability of compounds with its specific target. Firstly, cells were seeded into T75 culture flasks and cultured overnight. Then, the cells were treated with cell media containing 1‰ DMSO as blank control and candidate compounds for 3–5 h. Next, the cells were collected by centrifugation and resuspended by PBS, then the cells were aliquoted into 7 PCR tubes and heated using PCR instrument for 10 min from 43 to 61 °C. After that, cells were lysed using liquid nitrogen and three repeated cycles of freeze-thawing. Then, samples were centrifuged at 12,000 × g for 20 min at 4 °C. Supernatants were denatured at 100 °C for 10 min and kept at −20 °C until Western Blot analysis.

[2] = system: L02 cells; assay: MTT cell viability, L02; assay type: cell-based; conditions: Homo sapiens, normal liver cell line, 72 h
Procedure: (§1) The cell viability was determined by 3-(4,5-dimethylthiazol-2-yl)-2,5-diphenyltetrazolium bromide (MTT) assay, according to the manufacturer’s instructions. 1 day before treatment, cells were seeded into 96-well plates at a concentration of 2–5 × 10^3 cells per well, followed by treatment with fresh medium containing serial dilutions of candidate compounds for 48 or 72 h, 20 μL of MTT solution (5 mg/mL in PBS) was then added to each well. After treatment, the plates were incubated at 37 °C for another 4 h. Subsequently, the MTT solution was removed and 150 μL of DMSO was added to each well for 10 min, and then the plates were shaken to dissolve the dark blue crystal (formazan), the absorbance was detected at 570 nm using a BioTek microplate reader. The data were analyzed using SPSS 20 software.

[3] = system: HL-7702 cells; assay: MTT cell viability, HL-7702; assay type: cell-based; conditions: Homo sapiens, L02, normal liver cell line, 72 h
Procedure: as §1

[4] = system: Het-1A cells; assay: MTT cell viability, Het-1A; assay type: cell-based; conditions: Homo sapiens, normal esophageal epithelial cell line, 72 h
Procedure: as §1

[5] = system: ZIP177 cells; assay: MTT cell viability, ZIP177; assay type: cell-based; conditions: Homo sapiens, liver cancer cell line, 72 h
Procedure: as §1

[6] = system: TE-1 cells; assay: MTT cell viability, TE-1; assay type: cell-based; conditions: Homo sapiens, 72 h
Procedure: as §1

[7] = system: SGC-7901 cells; assay: MTT cell viability, SGC-7901; assay type: cell-based; conditions: Homo sapiens, gastric cancer cell line, 72 h
Procedure: as §1

[8] = system: H1975 cells; assay: MTT cell viability, H1975; assay type: cell-based; conditions: Homo sapiens, NCI-H1975, 72 h
Procedure: as §1

[9] = system: B16-F10 cells; assay: MTT cell viability, B16-F10; assay type: cell-based; conditions: Mus musculus, 72 h
Procedure: as §1

[10] = system: HGC-27 cells; assay: Colony formation assay, HGC-27; assay type: cell-based, human; conditions: HGC-27, 7 days treatment, compared with DMSO or MI-929
Procedure: The day before treatment, cells were seeded into six-well plates at a concentration of 1 × 10^3 cells per well, and then the media were replaced with fresh media containing serial concentrations of candidate compounds. After 7 days of treatment, the cells were fixed with 75% ethanol, stained with 0.1% crystal violet solution and captured by the microscopy (Leica). After that, the crystal violet crystals were dissolved by adding methanol. The absorbance at 595 nm was measured by a BioTek micro plate reader. In the end, the data were analyzed using the GraphPad Prism 5 software.

[11] = system: MGC-803 cells; assay: 8-oxo-dG assay (Cy3-conjugated avidin), MGC-803; assay type: cell-based, human; conditions: MGC-803, 5 µM, 48 h, compared with DMSO
Procedure: (§2) Intracellular 8-oxo-dG levels were measured by staining with Cy3-conjugated avidin[65]. Cells were seeded on coverslips in 24-well plates (1–1.5 × 10^4 cells/well) overnight, and then transfected with candidate compounds. After 48 h, the cells were fixed with ice-cold methanol in Tris-buffered saline (TBS) for 15 min and blocked, using TBS with 0.1% Triton X-100 and 15% fetal bovine serum for 1 h. Then, the cells were stained with Cy3-conjugated avidin (0.5 µg/mL) for 1 h at room temperature. DNA was counterstained with 4,6-diamidino-2-phenylindole(DAPI). Images were acquired in a Nikon Eclipse TE 2000-S fluorescence microscope.

[12] = system: HGC-27 cells; assay: 8-oxo-dG assay (Cy3-conjugated avidin), HGC-27; assay type: cell-based, human; conditions: HGC-27, 5 µM, 48 h, compared with DMSO
Procedure: as §2

[13] = Body weight and organ H&E staining in xenograft mice; assay type: in vivo, BALB/c nude mice; conditions: 40 mg/kg, gavage once a day for 25 days, vs oil group
Procedure: All animal experiments were conducted according to the guidelines of the Institutional Animal Care and Use Committee of Zhengzhou University. Four or five-week-old female BALB/c nude mice, weighing 18–21 g were purchased from Hunan Slack Scene of Laboratory Animal Company, LTD (Hunan, China). They received abundant food and water and were housed in a laminar flow under sterilized condition. 200 µL MGC-803 cells at the concentration of 5 × 10^7/mL were injected into the right scapular region of the mice. When most of the tumor volumes reached 100 mm^3, mice were randomly divided into oil (solvent) group and MI-743(40 mg/kg) treatment group. Then, they received gavage daily for 25 days. The body weight was weighed every 2 days and the tumor volumes were measured every 4 days. At the 25th day, the tumors were surgically removed and weighed. The tumor size was determined by vernier caliper measurements and the tumor and major organs were fixed in 4% buffered paraformaldehyde and paraffin-embedded for hematoxylin and eosin (HE) staining, immunohistochemistry (IHC) and TUNEL assay.

[14] = biological target: MTH1 (Homo sapiens, UniProt P36639); assay: MTH1 recombinant protein activity / inhibitor screening (malachite green); assay type: biochemical; set-up: His-tag; made in house; host or cells: E. coli BL21(DE3); conditions: 5 nM recombinant MTH1, dGTP substrate, absorbance 630 nm; read-out: IC50 (MTH1 inhibition)
Procedure: On the basis of the ability of MTH1 in converting dGTP to dGMP and pyrophosphate, and the latter can then be hydrolyzed to […] by inorganic pyrophosphatase, the MTH1 activity was designed to measure the product of […], after its reaction with malachite green and ammonium molybdate(Fig. 2l), the green associated complex was measured at 630 nm by PerkinElmer Envision microplate reader.
Firstly, the assay buffer (100 mM Tris-acetate at pH 8.0, 40 mM NaCl, 10 mM Mg-acetate, 0.005% Tween 20 and 1 mM DTT) was added into a 96-well plate. Then, 5 nM recombinant human MTH1, […] dGTP and 0.2U/ml […] were added in sequence. After 60 min reaction, the mixture of 0.45 mg/mL malachite green and 4.2% ammonium molybdate in proportion of 3:1 were added. Then, the plates were incubated and shaken at room temperature for another 60 min. The absorbance was measured at 630 nm using the PerkinElmer Envision micro plate reader.

T1 sequence (Q9UIF7 whole entry): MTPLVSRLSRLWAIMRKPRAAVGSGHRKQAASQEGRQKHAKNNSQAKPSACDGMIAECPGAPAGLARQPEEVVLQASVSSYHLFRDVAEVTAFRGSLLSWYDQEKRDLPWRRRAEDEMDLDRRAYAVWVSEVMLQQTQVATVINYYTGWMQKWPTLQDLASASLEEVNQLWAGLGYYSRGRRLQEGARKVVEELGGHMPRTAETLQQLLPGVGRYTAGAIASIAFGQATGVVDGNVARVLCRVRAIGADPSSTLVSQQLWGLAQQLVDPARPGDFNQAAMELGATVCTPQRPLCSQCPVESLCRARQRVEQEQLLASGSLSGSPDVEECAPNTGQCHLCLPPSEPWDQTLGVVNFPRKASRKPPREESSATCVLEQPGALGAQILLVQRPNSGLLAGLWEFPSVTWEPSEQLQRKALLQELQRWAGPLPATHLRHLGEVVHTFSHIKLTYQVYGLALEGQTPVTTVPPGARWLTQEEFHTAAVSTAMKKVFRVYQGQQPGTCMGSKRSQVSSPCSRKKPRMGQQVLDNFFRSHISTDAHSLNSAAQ

C#CCSc1nc(NNC(N)=S)c(C#N)c(-c2ccc3oc(=O)ccc3c2)n1 [MI-743, 2-(5-cyano-6-(2-oxo-2H-chromen-6-yl)-2-(prop-2-yn-1-ylthio)pyrimidin-4-yl)hydrazine-1-carbothioamide]
temperature at which MUTYH became unstable [1]: 49 °C | IC50 [2]: 17.3 ± 1.23 µM | IC50 [3]: 20.1 ± 1.76 µM | IC50 [4]: 19.2 ± 1.89 µM | IC50 [5]: 9.36 ± 0.92 µM | IC50 [6]: 12.8 ± 1.07 µM | IC50 [7]: 10.4 ± 1.01 µM | IC50 [8]: 15.1 ± 1.18 µM | IC50 [9]: 8.08 ± 0.91 µM | colony formation [10]: smaller and fewer colonies | levels of 8-oxo-dG [11]: sharply increased | levels of 8-oxo-dG [12]: sharply increased | H&E staining of the liver, kidney, lung, heart and spleen [13]: no signs of toxicity | mouse body weight [13]: did not present obvious change | IC50 [14]: 91.4 ± 1.45 nM
